Assay results reported in patent US8680012B2, “4-phenyl-pyrane-3,5-diones,4-phenyl-thiopyrane-3,6-diones and cyclohexanetriones as novel herbicides” (Syngenta Crop Protection LLC, priority 2006, dated 2014).

Key:
Assay type in all cases: in vivo
[1] = system: Alopecurus myosuroides (ALOMY); test: Example B pre-emergence herbicidal activity, glasshouse pot test; conditions: 312 h, rate 250 g/ha, evaluated after 13 days, read-out: Pre-emergence activity ALOMY (100=total damage to plant; 0=no damage to plant)
Method in brief: (§1)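 One day (pre) or eight days (post) after sowing, pots received a spray of test compound formulated in acetone/water 50:50 with 0.5% Tween 20; plants were then kept under controlled glasshouse conditions with watering twice daily and assessed for damage (0–100) at 13 days.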

[2] = system: Echinochloa crus-galli (ECHCG); test: as above; conditions: 312 h, rate 250 g/ha, evaluated after 13 days, read-out: Pre-emergence activity ECHCG (100=total damage to plant; 0=no damage to plant)
Method in brief: as §1

[3] = system: Setaria faberi (SETFA); test: as above; conditions: 312 h, rate 250 g/ha, evaluated after 13 days, read-out: Pre-emergence activity SETFA (100=total damage to plant; 0=no damage to plant)
Method in brief: as §1

[4] = system: Avena fatua (AVEFA); test: as above; conditions: 312 h, rate 250 g/ha, evaluated after 13 days, read-out: Pre-emergence activity AVEFA (100=total damage to plant; 0=no damage to plant)
Method in brief: as §1

[5] = system: Amaranthus retroflexus (AMARE); test: as above; conditions: 312 h, rate 250 g/ha, evaluated after 13 days, read-out: Pre-emergence activity AMARE (100=total damage to plant; 0=no damage to plant)
Method in brief: as §1

[6] = system: Alopecurus myosuroides (ALOMY); test: Example B post-emergence herbicidal activity, glasshouse pot test; conditions: 312 h, rate 250 g/ha, evaluated after 13 days, read-out: Post-emergence activity ALOMY (100=total damage to plant; 0=no damage to plant)
Method in brief: as §1

[7] = system: Echinochloa crus-galli (ECHCG); test: as above; conditions: 312 h, rate 250 g/ha, evaluated after 13 days, read-out: Post-emergence activity ECHCG (100=total damage to plant; 0=no damage to plant)
Method in brief: as §1

[8] = system: Setaria faberi (SETFA); test: as above; conditions: 312 h, rate 250 g/ha, evaluated after 13 days, read-out: Post-emergence activity SETFA (100=total damage to plant; 0=no damage to plant)
Method in brief: as §1

[9] = system: Avena fatua (AVEFA); test: as above; conditions: 312 h, rate 250 g/ha, evaluated after 13 days, read-out: Post-emergence activity AVEFA (100=total damage to plant; 0=no damage to plant)
Method in brief: as §1

[10] = system: Amaranthus retroflexus (AMARE); test: as above; conditions: 312 h, rate 250 g/ha, evaluated after 13 days, read-out: Post-emergence activity AMARE (100=total damage to plant; 0=no damage to plant)
Method in brief: as §1

| Compound | pest or weed control at 250 g/ha [1] [%] | pest or weed control at 250 g/ha [2] [%] | pest or weed control at 250 g/ha [3] [%] | pest or weed control at 250 g/ha [4] [%] | pest or weed control at 250 g/ha [5] [%] | pest or weed control at 250 g/ha [6] [%] | pest or weed control at 250 g/ha [7] [%] | pest or weed control at 250 g/ha [8] [%] | pest or weed control at 250 g/ha [9] [%] | pest or weed control at 250 g/ha [10] [%] |
| --- | --- | --- | --- | --- | --- | --- | --- | --- | --- | --- |
| CCc1ccc(-c2cc(Cl)c(Cl)c(Cl)c2)cc1C1=C(O)C(C)(C)OC(C)(C)C1=O [Compound A-139] | 0 | 30 | 70 | 0 | 0 | 30 | 100 | 80 | 50 | 50 |
| CCc1ccc(-c2ccc(Br)cc2)cc1C1=C(O)C(C)(C)OC(C)(C)C1=O [Compound A-81] | 80 | 100 | 100 | 90 | 0 | 100 | 100 | 100 | 100 | 0 |
| Cc1cc(C)c(-c2ccc(Cl)cc2)c(C)c1C1=C(O)C(C)(C)OC(C)(C)C1=O [Compound A-92] | 10 | 50 | 60 | 0 | 0 | 50 | 100 | 90 | 0 | 0 |
| CCc1ccc(-c2ccc(Cl)c(Cl)c2F)cc1C1=C(O)C(C)(C)OC(C)(C)C1=O [Compound A-155] | 50 | 100 | 100 | 0 | 0 | 100 | 100 | 100 | 90 | 40 |
| CCc1ccc(-c2cnc(Cl)cc2C)cc1C1=C(O)C(C)(C)OC(C)(C)C1=O [Compound A-73] | 0 | 10 | 20 | 0 | 0 | 20 | 90 | 90 | 0 | 0 |
| CCc1ccc(-c2ccc(Cl)cc2Cl)cc1C1=C(O)[C@@]2(C)CC[C@H](O2)C1=O (single isomer, unassigned) [Compound A-128] | 40 | 70 | 90 | 80 | 0 | 80 | 100 | 100 | 90 | 0 |
| CCc1ccc(-c2ccc(OC(F)F)cc2)cc1C1=C(O)C(C)(C)OC(C)(C)C1=O [Compound A-151] | 100 | 100 | 100 | 100 | 0 | 100 | 100 | 100 | 100 | 0 |
| CCc1ccc(-c2ccc(Cl)c(OC)c2)cc1C1=C(O)C(C)(C)OC(C)(C)C1=O [Compound A-135] | 80 | 100 | 100 | 100 | 0 | 100 | 100 | 100 | 100 | 0 |
| CCc1ccc(-c2ccc(Cl)cc2C)cc1C1=C(O)C(C)(C)OC(C)(C)C1=O [Compound A-64] | 0 | 40 | 40 | 20 | 0 | 20 | 100 | 90 | 0 | 20 |
| CCc1ccc(-c2ccc(Cl)cc2Cl)cc1C1=C(O)[C@]2(C)O[C@@H](CC2COC)C1=O (some centres unmarked) [Compound A-133] | 10 | 0 | 80 | 70 | 0 | 20 | 100 | 100 | 80 | 70 |
| CCc1ccc(-c2ccc(Cl)c(C#N)c2)cc1C1=C(O)C(C)(C)OC(C)(C)C1=O [Compound A-69] | 0 | 60 | 80 | 0 | 0 | 70 | 100 | 100 | 90 | 90 |
| CCc1ccc(-c2ccc(Cl)cc2Cl)cc1C1=C(O)C(C)(C)SC(C)(C)C1=O (single isomer, unassigned) [Compound C-4] | 0 | 0 | 0 | 0 | 0 | 60 | 70 | 70 | 30 | 20 |
| CCOC[C@]12CC[C@H](O1)C(=O)C(c1cc(-c3ccc(Cl)c(Cl)c3)ccc1CC)=C2O (single isomer, unassigned) [Compound A-129] | 20 | 40 | 90 | 30 | 0 | 70 | 90 | 80 | 80 | 0 |
| CCc1ccc(-c2ccc(Cl)cc2Cl)cc1C1=C(OC(=O)COC)C(C)(C)OC(C)(C)C1=O [Compound D-24] | 0 | 100 | 90 | 0 | 20 | 0 | 100 | 100 | 20 | 0 |
| CCOC[C@]12CC[C@H](O1)C(=O)C(c1cc(-c3ccc(Cl)cc3)ccc1CC)=C2O (single isomer, unassigned) [Compound A-124] | 50 | 70 | 100 | 60 | 0 | 80 | 100 | 100 | 90 | 20 |
| CC1(C)OC(C)(C)C(O)=C(c2cc(-c3ccc(Cl)cc3)ccc2Cl)C1=O [Compound A-142] | 60 | 70 | 100 | 70 | 0 | 100 | 100 | 80 | 80 | 0 |
| Cc1cc(C)c(-c2ccc(Cl)c(F)c2)c(C)c1C1=C(O)C(C)(C)OC(C)(C)C1=O [Compound A-97] | 0 | 50 | 60 | 0 | 0 | 40 | 90 | 70 | 30 | 0 |
